Reference: patent US20120029187A1, “HALOALKYLSULFONANILIDE DERIVATIVE” (Nissan Chemical Industries, Ltd., priority 2009, published 2012)

Key:
Type in all cases: in vivo
barnyardgrass [1] = experiment: Test Example 1: herbicidal effects in preemergence treatment under submerged conditions; settings: dose 2.52 g/a
Method in brief: (§1)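 Weed seeds and 2.5-leaf rice seedlings shared each flooded cup of alluvial soil. Dosing, expressed as g per are, was by pouring water-diluted emulsifiable concentrate onto the surface on sowing day. Mortality was graded 0 to 5 after three weeks' growth.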

bulrush [2] = experiment: as above; settings: dose 2.52 g/a
Method in brief: as §1

ducksalad [3] = experiment: as above; settings: dose 2.52 g/a
Method in brief: as §1

transplanted rice = experiment: Test Example 1: preemergence treatment under submerged conditions, effect on crop; settings: dose 2.52 g/a
Method in brief: as §1

barnyardgrass [4] = experiment: Test Example 2: herbicidal effects during the vegetation period under submerged conditions; settings: treatment during the vegetation period under submerged conditions; dose 2.52 g/a
Method in brief: (§2)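 Barnyardgrass, bulrush and ducksalad were co-sown in alluvial soil flooded to 4 cm and grown in a greenhouse at 25 to 30° C. At the 1- or 2-leaf stage, water-diluted emulsifiable concentrates went onto the water surface at set doses (g/a). Herbicidal effect was scored three weeks later on a graded scale.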

bulrush [5] = experiment: as above; settings: treatment during the vegetation period under submerged conditions; dose 2.52 g/a
Method in brief: as §2

ducksalad [6] = experiment: as above; settings: treatment during the vegetation period under submerged conditions; dose 2.52 g/a
Method in brief: as §2

Italian ryegrass [7] = experiment: Test Example 3: herbicidal effects in soil treatment; settings: dose 3.2 g/a
Method in brief: (§3)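 Seeds were sown in sterilized diluvial soil and covered with about 1.5 cm of soil. Compounds, formulated as emulsifiable concentrates and diluted with water, were sprayed evenly over the soil surface at set doses in g/a. Herbicidal effect was scored on a rating scale three weeks later.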

barnyardgrass [8] = experiment: as above; settings: dose 3.2 g/a
Method in brief: as §3

beadstraw = experiment: as above; settings: dose 3.2 g/a
Method in brief: as §3

common chickweed [9] = experiment: as above; settings: dose 3.2 g/a
Method in brief: as §3

common lambsquater [10] = experiment: as above; settings: dose 3.2 g/a
Method in brief: as §3

common ragweed [11] = experiment: as above; settings: dose 3.2 g/a
Method in brief: as §3

giant foxtail [12] = experiment: as above; settings: dose 3.2 g/a
Method in brief: as §3

large crabgrass [13] = experiment: as above; settings: dose 3.2 g/a
Method in brief: as §3

posumbu knotweed [14] = experiment: as above; settings: dose 3.2 g/a
Method in brief: as §3

redroot pigweed [15] = experiment: as above; settings: dose 3.2 g/a
Method in brief: as §3

velvetleaf [16] = experiment: as above; settings: dose 3.2 g/a
Method in brief: as §3

water foxtail [17] = experiment: as above; settings: dose 3.2 g/a
Method in brief: as §3

Italian ryegrass [18] = experiment: Test Example 4: herbicidal effect in foliage treatment; settings: dose 3.2 g/a, three weeks after application
Method in brief: (§4)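 Seeds were spot-sown in boxes of sterilized diluvial soil and raised in a greenhouse (25 to 30° C) for 14 days before a single foliar application. Compounds were applied as emulsifiable concentrates diluted with water, at predetermined doses in g/a. Injury was graded three weeks post-spray.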

barnyardgrass [19] = experiment: as above; settings: dose 3.2 g/a, three weeks after application
Method in brief: as §4

common chickweed [20] = experiment: as above; settings: dose 3.2 g/a, three weeks after application
Method in brief: as §4

common lambsquater [21] = experiment: as above; settings: dose 3.2 g/a, three weeks after application
Method in brief: as §4

common ragweed [22] = experiment: as above; settings: dose 3.2 g/a, three weeks after application
Method in brief: as §4

giant foxtail [23] = experiment: as above; settings: dose 3.2 g/a, three weeks after application
Method in brief: as §4

large crabgrass [24] = experiment: as above; settings: dose 3.2 g/a, three weeks after application
Method in brief: as §4

posumbu knotweed [25] = experiment: as above; settings: dose 3.2 g/a, three weeks after application
Method in brief: as §4

redroot pigweed [26] = experiment: as above; settings: dose 3.2 g/a, three weeks after application
Method in brief: as §4

velvetleaf [27] = experiment: as above; settings: dose 3.2 g/a, three weeks after application
Method in brief: as §4

water foxtail [28] = experiment: as above; settings: dose 3.2 g/a, three weeks after application
Method in brief: as §4

Row | Compound | A: barnyardgrass, herbicidal effect (evaluation scale 0-5) (barnyardgrass [1]) | B: bulrush, herbicidal effect (evaluation scale 0-5) (bulrush [2]) | C: ducksalad, herbicidal effect (evaluation scale 0-5) (ducksalad [3]) | a: transplanted rice, effect on crop (evaluation scale 0-5) (transplanted rice) | A: barnyardgrass, herbicidal effect (evaluation scale 0-5) (barnyardgrass [4]) | B: bulrush, herbicidal effect (evaluation scale 0-5) (bulrush [5]) | C: ducksalad, herbicidal effect (evaluation scale 0-5) (ducksalad [6]) | H: Italian ryegrass, herbicidal effect (evaluation scale 0-5) (Italian ryegrass [7]) | A: barnyardgrass, herbicidal effect (evaluation scale 0-5) (barnyardgrass [8]) | O: beadstraw, herbicidal effect (evaluation scale 0-5) (beadstraw) | N: common chickweed, herbicidal effect (evaluation scale 0-5) (common chickweed [9]) | L: common lambsquater, herbicidal effect (evaluation scale 0-5) (common lambsquater [10]) | J: common ragweed, herbicidal effect (evaluation scale 0-5) (common ragweed [11]) | E: giant foxtail, herbicidal effect (evaluation scale 0-5) (giant foxtail [12]) | D: large crabgrass, herbicidal effect (evaluation scale 0-5) (large crabgrass [13]) | M: posumbu knotweed, herbicidal effect (evaluation scale 0-5) (posumbu knotweed [14]) | K: redroot pigweed, herbicidal effect (evaluation scale 0-5) (redroot pigweed [15]) | I: velvetleaf, herbicidal effect (evaluation scale 0-5) (velvetleaf [16]) | G: water foxtail, herbicidal effect (evaluation scale 0-5) (water foxtail [17]) | H: Italian ryegrass, herbicidal effect (Italian ryegrass [18]) | also measured
1 | CC1(C2CC2)CC(=O)N(Cc2ccccc2NS(=O)(=O)C(F)(F)F)CO1 (stereo not drawn) [II-44] | 5 (mortality of 90% or above (nearly complete death)) | 5 (mortality of 90% or above (nearly complete death)) | 5 (mortality of 90% or above (nearly complete death)) | 3 (mortality of at least 40% and less than 70%) | 5 (mortality of 90% or above (nearly complete death)) | 5 (mortality of 90% or above (nearly complete death)) | 5 (mortality of 90% or above (nearly complete death)) | 5 (mortality of 90% or above (nearly complete death)) | 5 (mortality of 90% or above (nearly complete death)) | 0 (mortality of less than 5% (almost ineffective)) | 2 (mortality of at least 20% and less than 40%) | 0 (mortality of less than 5% (almost ineffective)) | 3 (mortality of at least 40% and less than 70%) | 4 (mortality of at least 70% and less than 90%) | 4 (mortality of at least 70% and less than 90%) | 3 (mortality of at least 40% and less than 70%) | 0 (mortality of less than 5% (almost ineffective)) | 3 (mortality of at least 40% and less than 70%) | 5 (mortality of 90% or above (nearly complete death)) | 4 (mortality of at least 70% and less than 90%) | A: barnyardgrass, herbicidal effect (barnyardgrass [19]): 4 (mortality of at least 70% and less than 90%); N: common chickweed, herbicidal effect (common chickweed [20]): 4 (mortality of at least 70% and less than 90%); L: common lambsquater, herbicidal effect (common lambsquater [21]): 1 (mortality of at least 5% and less than 20%); J: common ragweed, herbicidal effect (common ragweed [22]): 2 (mortality of at least 20% and less than 40%); E: giant foxtail, herbicidal effect (giant foxtail [23]): 3 (mortality of at least 40% and less than 70%); D: large crabgrass, herbicidal effect (large crabgrass [24]): 2 (mortality of at least 20% and less than 40%); M: posumbu knotweed, herbicidal effect (posumbu knotweed [25]): 1 (mortality of at least 5% and less than 20%); K: redroot pigweed, herbicidal effect (redroot pigweed [26]): 0 (mortality of less than 5% (almost ineffective)); I: velvetleaf, herbicidal effect (velvetleaf [27]): 3 (mortality of at least 40% and less than 70%); G: water foxtail, herbicidal effect (water foxtail [28]): 4 (mortality of at least 70% and less than 90%)
2 | O=C1CC2(CCCC2)OCN1Cc1ccccc1NS(=O)(=O)C(F)(F)F [II-64] | 5 (mortality of 90% or above (nearly complete death)) | 5 (mortality of 90% or above (nearly complete death)) | 5 (mortality of 90% or above (nearly complete death)) | 0 (mortality of less than 5% (almost ineffective)) | 5 (mortality of 90% or above (nearly complete death)) | 5 (mortality of 90% or above (nearly complete death)) | 5 (mortality of 90% or above (nearly complete death)) | 5 (mortality of 90% or above (nearly complete death)) | 5 (mortality of 90% or above (nearly complete death)) | 4 (mortality of at least 70% and less than 90%) | 4 (mortality of at least 70% and less than 90%) | 5 (mortality of 90% or above (nearly complete death)) | 4 (mortality of at least 70% and less than 90%) | 5 (mortality of 90% or above (nearly complete death)) | 5 (mortality of 90% or above (nearly complete death)) | 5 (mortality of 90% or above (nearly complete death)) | 4 (mortality of at least 70% and less than 90%) | 3 (mortality of at least 40% and less than 70%) | 5 (mortality of 90% or above (nearly complete death)) | 3 (mortality of at least 40% and less than 70%) | A: barnyardgrass, herbicidal effect (barnyardgrass [19]): 4 (mortality of at least 70% and less than 90%); N: common chickweed, herbicidal effect (common chickweed [20]): 4 (mortality of at least 70% and less than 90%); L: common lambsquater, herbicidal effect (common lambsquater [21]): 2 (mortality of at least 20% and less than 40%); J: common ragweed, herbicidal effect (common ragweed [22]): 3 (mortality of at least 40% and less than 70%); E: giant foxtail, herbicidal effect (giant foxtail [23]): 4 (mortality of at least 70% and less than 90%); D: large crabgrass, herbicidal effect (large crabgrass [24]): 4 (mortality of at least 70% and less than 90%); M: posumbu knotweed, herbicidal effect (posumbu knotweed [25]): 3 (mortality of at least 40% and less than 70%); K: redroot pigweed, herbicidal effect (redroot pigweed [26]): 0 (mortality of less than 5% (almost ineffective)); I: velvetleaf, herbicidal effect (velvetleaf [27]): 1 (mortality of at least 5% and less than 20%); G: water foxtail, herbicidal effect (water foxtail [28]): 5 (mortality of 90% or above (nearly complete death))
